ChEMBL document CHEMBL5046246, “Dimeric Tetracenomycin Derivatives from a Taklamakan Desert-Derived Streptomyces sp. HDN154193” (2022)
Converted amounts (≈) assume the structure as drawn.

Experiments:
Format in all cases: functional
Bacillus subtilis = experiment: Antibacterial activity against Bacillus subtilis assessed as reduction in bacterial growth by double dilution method
Staphylococcus aureus = experiment: Antibacterial activity against methicillin-resistant Staphylococcus aureus assessed as reduction in bacterial growth by double dilution method
Staphylococcus = experiment: Antibacterial activity against methicillin-resistant coagulase-negative Staphylococcus assessed as reduction in bacterial growth by double dilution method
Proteus sp. = experiment: Antibacterial activity against Proteus species assessed as reduction in bacterial growth by double dilution method; settings: Proteus sp. (in: enterobacteria)
Mycolicibacterium phlei = experiment: Antibacterial activity against Mycobacterium phlei assessed as reduction in bacterial growth by double dilution method

Structure (SMILES) | MIC (Bacillus subtilis) | MIC (Staphylococcus aureus) | MIC (Staphylococcus) | MIC (Proteus sp.) | MIC (Mycolicibacterium phlei)
O=C(O)c1cn(C2CC2)c2cc(N3CCNCC3)c(F)cc2c1=O [CIPROFLOXACIN] | < 0.1 µg/mL | 128 µg/mL (≈ 388 µM) | 32.1 µg/mL (≈ 96.9 µM) | < 0.1 µg/mL | 0.1 µg/mL (≈ 0.302 µM)
Cc1cc(O)cc2cc3c(c(O)c12)C(=O)c1c(O)cc(O)cc1C3=O [TETRACENOMYCIN D] | 16 µg/mL (≈ 47.6 µM) | 16 µg/mL (≈ 47.6 µM) | 7.7 µg/mL (≈ 22.9 µM) | 16 µg/mL (≈ 47.6 µM) | 7.7 µg/mL (≈ 22.9 µM)
Cc1cc(O)cc2cc3c(c(O)c12)C(=O)c1c(O)cc(O)cc1[C@@H]3[C@H]1c2cc(O)cc(O)c2C(=O)c2c1cc1cc(O)cc(C)c1c2O | 3.9 µg/mL (≈ 6.07 µM) | 1.9 µg/mL (≈ 2.96 µM) | 1.9 µg/mL (≈ 2.96 µM) | 3.9 µg/mL (≈ 6.07 µM) | 1.9 µg/mL (≈ 2.96 µM)
Cc1cc(O)cc2cc3c(c(O)c12)C(=O)c1c(O)cc(O)cc1[C@H]3[C@H]1c2cc(O)cc(O)c2C(=O)c2c1cc1cc(O)cc(C)c1c2O | 3.9 µg/mL (≈ 6.07 µM) | 1.9 µg/mL (≈ 2.96 µM) | 1.9 µg/mL (≈ 2.96 µM) | 3.9 µg/mL (≈ 6.07 µM) | 1.9 µg/mL (≈ 2.96 µM)
Cc1cc(O)cc2cc3c(c(O)c12)C(=O)c1c(O)cc(O)cc1C3C1c2cc(O)cc(O)c2C(=O)c2c1cc1cc(O)cc(C)c1c2O (racemic) | 3.9 µg/mL (≈ 6.07 µM) | 1 µg/mL (≈ 1.56 µM) | 1.9 µg/mL (≈ 2.96 µM) | 1.9 µg/mL (≈ 2.96 µM) | 1 µg/mL (≈ 1.56 µM)
Cc1cc(O)cc2cc3c(c(O)c12)C(=O)c1c(O)cc(O)cc1[C@H]3[C@@H]1c2cc(O)cc(O)c2C(=O)c2c1cc1cc(O)cc(C)c1c2O | 1.9 µg/mL (≈ 2.96 µM) | 1.9 µg/mL (≈ 2.96 µM) | 1.9 µg/mL (≈ 2.96 µM) | 1.9 µg/mL (≈ 2.96 µM) | 1.9 µg/mL (≈ 2.96 µM)
